Values joined by “and” are separate entries in the source; they are usually repeats but may differ in a detail not shown here. Equal entries are not always repeated. Where two headings read alike, the source gives them in different places.
Key:
5-HT1B receptor (HTR1B) = molecular target: T1, 5-HT1B receptor (HTR1B) (Homo sapiens, UniProt P28222); experiment: GPCR selectivity cellular assay; format: cell-based; conditions: Agonism; read-out: Agonist Activity (EC50)
T1 construct: expressed in transfected cells
Method: (§1) tagonists, with little activity detected on other GPCRs. Antagonist and/or agonist activities of the two compounds were determined in cellular assays for 20 human G-protein coupled receptors (GPCR) beside MRGPRX2. Recombinant over-expression systems in mammalian cells were used for all assays listed in this table. […]
(§2) reported as ‘>’ the highest compound concentration allowed in that assay.
(§3) GPCR Target Name Gene symbol Mode of Activity Compound-A Compound-B […]
(§4) Agonist Activity (EC50 ) or Antagonist Activity (IC50 ), nM […]

5-HT2A receptor (HTR2A) = 5-HT2A receptor (HTR2A) (Homo sapiens, UniProt P28223); experiment: GPCR selectivity cellular assay; format: cell-based
Method: as §1, §2, §3, §4

5-HT2B receptor (HTR2B) = 5-HT2B receptor (HTR2B) (Homo sapiens, UniProt P41595); experiment: GPCR selectivity cellular assay; format: cell-based; conditions: Agonism; read-out: Agonist Activity (EC50)
Method: as §1, §2, §3, §4

CB1 receptor (CNR1) = molecular target: T2, CB1 receptor (CNR1) (Homo sapiens, UniProt P21554); experiment: GPCR selectivity cellular assay; format: cell-based
T2 construct: expressed in transfected cells
Method: as §1, §2, §3, §4

D1 receptor (DRD1) = molecular target: T3, D1 receptor (DRD1) (Homo sapiens, UniProt P21728); experiment: GPCR selectivity cellular assay; format: cell-based; conditions: Antagonism; read-out: Antagonist Activity (IC50)
T3 construct: expressed in transfected cells
Method: as §1, §2, §3, §4

M1 receptor (CHRM1) = molecular target: T4, M1 receptor (CHRM1) (Homo sapiens, UniProt P11229); experiment: GPCR selectivity cellular assay; format: cell-based; conditions: for EC50: Agonism, read-out: Agonist Activity (EC50); for IC50: Antagonism, read-out: Antagonist Activity (IC50)
T4 construct: expressed in transfected cells
T4 sequence (P11229 1-460): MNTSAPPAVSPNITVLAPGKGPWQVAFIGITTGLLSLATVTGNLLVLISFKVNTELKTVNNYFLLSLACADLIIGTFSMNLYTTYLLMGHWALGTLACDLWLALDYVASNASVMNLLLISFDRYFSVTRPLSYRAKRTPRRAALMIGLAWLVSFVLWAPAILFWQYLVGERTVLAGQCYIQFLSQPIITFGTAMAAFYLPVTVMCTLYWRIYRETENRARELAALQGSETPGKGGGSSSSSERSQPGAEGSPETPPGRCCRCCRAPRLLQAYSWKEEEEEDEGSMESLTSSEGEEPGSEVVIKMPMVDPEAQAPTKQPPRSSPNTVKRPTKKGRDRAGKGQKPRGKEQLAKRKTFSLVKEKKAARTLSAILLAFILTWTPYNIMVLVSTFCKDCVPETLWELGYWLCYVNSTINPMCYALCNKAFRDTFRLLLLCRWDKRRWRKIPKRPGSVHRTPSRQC
Method: as §1, §2, §3, §4

NK1 receptor (TACR1) = NK1 receptor (TACR1) (Homo sapiens, UniProt P25103); experiment: GPCR selectivity cellular assay; format: cell-based; conditions: Antagonism; read-out: Antagonist Activity (IC50)
Method: as §1, §2, §3, §4

V1A receptor (AVPR1A) = molecular target: T5, V1A receptor (AVPR1A) (Homo sapiens, UniProt P37288); experiment: GPCR selectivity cellular assay; format: cell-based; conditions: Antagonism; read-out: Antagonist Activity (IC50)
T5 construct: expressed in transfected cells
Method: as §1, §2, §3, §4

[1] = molecular target: T6, a1B-Adrenoreceptor (ADRA1B) (Homo sapiens, UniProt P35368); experiment: GPCR selectivity cellular assay; format: cell-based; conditions: Antagonism; read-out: Antagonist Activity (IC50)
T6 construct: expressed in transfected cells
Method: as §1, §2, §3, §4

k-Receptor (OPRK1) = k-Receptor (OPRK1) (Homo sapiens, UniProt P41145); experiment: GPCR selectivity cellular assay; format: cell-based
Method: as §1, §2, §3, §4

[2] = Blood-free concentration at end of itch observation period; format: in vivo, mouse; conditions: 3 mg/kg PO, average ± SD
Method: Figure 6 Oral treatment with the potent and selective MRGPRX2 antagonist, Compound B (3 mg/kg), blocks Cpd 48/80–induced itch response using human MRGPRX2 knock-in mice. […] Average ± SD blood-free concentration of antagonist measured at end of “itch” observation period was 19 ± 16 nM Compound B.
This study provides pharmacological evidence that MRGPRX2 is solely responsible for mediating an SP response in a human tissue, in this instance, skin. Finally, human MRGPRX2 knock-in mice were used to provide initial proof of target engagement of MRGPRX2 antagonists in the skin using an established behavioral scratching model.

[3] = Agonism, read-out: Agonist Activity (EC50)

Sequence of 5-HT2A receptor (HTR2A) (P28223 whole entry): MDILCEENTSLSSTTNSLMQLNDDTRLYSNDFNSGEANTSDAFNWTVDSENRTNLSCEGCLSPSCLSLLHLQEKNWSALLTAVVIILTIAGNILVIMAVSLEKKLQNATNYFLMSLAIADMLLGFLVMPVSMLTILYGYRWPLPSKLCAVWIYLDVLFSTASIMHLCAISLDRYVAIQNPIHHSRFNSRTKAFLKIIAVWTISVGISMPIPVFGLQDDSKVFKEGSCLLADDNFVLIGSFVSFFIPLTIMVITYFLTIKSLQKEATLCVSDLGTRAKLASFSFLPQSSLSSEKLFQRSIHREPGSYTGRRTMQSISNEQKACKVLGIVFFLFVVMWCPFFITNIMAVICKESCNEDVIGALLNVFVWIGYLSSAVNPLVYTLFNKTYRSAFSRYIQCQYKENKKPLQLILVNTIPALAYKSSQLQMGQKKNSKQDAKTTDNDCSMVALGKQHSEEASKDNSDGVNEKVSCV
Sequence of NK1 receptor (TACR1) (P25103 whole entry): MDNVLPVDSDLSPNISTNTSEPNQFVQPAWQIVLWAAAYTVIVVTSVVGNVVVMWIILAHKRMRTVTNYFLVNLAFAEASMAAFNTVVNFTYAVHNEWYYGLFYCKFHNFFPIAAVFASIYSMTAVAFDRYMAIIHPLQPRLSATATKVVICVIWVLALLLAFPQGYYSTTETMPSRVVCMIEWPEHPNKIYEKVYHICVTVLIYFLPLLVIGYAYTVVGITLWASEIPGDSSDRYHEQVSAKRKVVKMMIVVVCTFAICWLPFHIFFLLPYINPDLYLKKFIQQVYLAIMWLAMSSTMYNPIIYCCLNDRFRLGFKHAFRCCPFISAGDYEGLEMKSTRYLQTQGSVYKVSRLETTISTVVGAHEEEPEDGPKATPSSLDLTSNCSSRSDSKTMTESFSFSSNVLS
T2 sequence (P21554 whole entry): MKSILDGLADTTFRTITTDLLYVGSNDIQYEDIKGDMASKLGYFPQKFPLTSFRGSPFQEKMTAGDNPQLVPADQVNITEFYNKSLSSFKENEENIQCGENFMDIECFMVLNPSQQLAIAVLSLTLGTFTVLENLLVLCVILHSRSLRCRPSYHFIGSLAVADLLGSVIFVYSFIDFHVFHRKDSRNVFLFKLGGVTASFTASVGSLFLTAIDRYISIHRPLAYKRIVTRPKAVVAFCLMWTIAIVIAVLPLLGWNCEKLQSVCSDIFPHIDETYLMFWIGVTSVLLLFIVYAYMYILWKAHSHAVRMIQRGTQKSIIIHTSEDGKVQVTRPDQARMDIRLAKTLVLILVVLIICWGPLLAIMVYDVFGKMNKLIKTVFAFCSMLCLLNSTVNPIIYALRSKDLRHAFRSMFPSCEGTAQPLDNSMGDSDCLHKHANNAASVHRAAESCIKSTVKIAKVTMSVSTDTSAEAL
T6 sequence (P35368 whole entry): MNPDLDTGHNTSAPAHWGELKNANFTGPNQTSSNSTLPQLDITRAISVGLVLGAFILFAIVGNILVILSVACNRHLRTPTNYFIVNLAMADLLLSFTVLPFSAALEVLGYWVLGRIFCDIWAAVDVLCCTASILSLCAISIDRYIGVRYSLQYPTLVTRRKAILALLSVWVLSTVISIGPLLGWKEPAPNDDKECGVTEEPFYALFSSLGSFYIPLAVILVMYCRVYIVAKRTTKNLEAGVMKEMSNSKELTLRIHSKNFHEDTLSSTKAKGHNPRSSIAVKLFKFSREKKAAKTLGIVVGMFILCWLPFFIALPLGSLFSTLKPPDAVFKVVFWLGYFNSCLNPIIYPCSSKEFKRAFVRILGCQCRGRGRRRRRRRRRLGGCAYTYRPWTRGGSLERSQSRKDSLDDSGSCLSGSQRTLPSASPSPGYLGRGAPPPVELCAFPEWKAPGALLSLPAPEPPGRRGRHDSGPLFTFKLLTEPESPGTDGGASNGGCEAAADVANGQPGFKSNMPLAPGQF
T5 sequence (P37288 whole entry): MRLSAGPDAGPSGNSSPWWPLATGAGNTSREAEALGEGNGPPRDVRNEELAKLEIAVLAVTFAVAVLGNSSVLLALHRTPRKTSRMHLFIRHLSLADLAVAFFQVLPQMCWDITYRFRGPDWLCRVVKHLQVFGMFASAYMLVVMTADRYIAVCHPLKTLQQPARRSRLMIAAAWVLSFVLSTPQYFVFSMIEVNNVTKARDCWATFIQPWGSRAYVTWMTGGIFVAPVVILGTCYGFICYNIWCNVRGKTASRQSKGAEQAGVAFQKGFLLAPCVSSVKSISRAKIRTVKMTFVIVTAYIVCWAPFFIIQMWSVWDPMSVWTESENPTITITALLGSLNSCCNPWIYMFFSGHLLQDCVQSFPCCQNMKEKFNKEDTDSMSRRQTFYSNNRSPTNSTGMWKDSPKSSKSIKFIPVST
T3 sequence (P21728 whole entry): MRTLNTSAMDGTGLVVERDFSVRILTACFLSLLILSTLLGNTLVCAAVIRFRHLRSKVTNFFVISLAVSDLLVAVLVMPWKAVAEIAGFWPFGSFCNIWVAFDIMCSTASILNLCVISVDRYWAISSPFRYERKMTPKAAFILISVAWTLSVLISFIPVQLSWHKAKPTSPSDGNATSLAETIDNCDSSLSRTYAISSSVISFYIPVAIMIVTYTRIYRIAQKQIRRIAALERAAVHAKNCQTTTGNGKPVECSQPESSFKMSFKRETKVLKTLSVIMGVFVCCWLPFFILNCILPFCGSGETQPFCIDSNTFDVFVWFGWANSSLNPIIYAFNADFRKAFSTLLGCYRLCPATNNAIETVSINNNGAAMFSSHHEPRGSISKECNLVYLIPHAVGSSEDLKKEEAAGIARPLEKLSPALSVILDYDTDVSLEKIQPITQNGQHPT
Sequence of k-Receptor (OPRK1) (P41145 whole entry): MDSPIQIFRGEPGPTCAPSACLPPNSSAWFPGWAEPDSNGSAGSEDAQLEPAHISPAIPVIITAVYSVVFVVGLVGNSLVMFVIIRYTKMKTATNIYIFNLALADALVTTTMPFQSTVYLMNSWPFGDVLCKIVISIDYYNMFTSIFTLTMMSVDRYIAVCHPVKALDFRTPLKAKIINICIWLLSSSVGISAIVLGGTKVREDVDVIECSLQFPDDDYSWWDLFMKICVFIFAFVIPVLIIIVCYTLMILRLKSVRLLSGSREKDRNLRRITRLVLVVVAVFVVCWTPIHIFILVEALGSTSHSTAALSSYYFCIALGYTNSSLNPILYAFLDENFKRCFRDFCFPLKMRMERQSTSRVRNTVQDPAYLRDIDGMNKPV
T1 sequence (P28222 whole entry): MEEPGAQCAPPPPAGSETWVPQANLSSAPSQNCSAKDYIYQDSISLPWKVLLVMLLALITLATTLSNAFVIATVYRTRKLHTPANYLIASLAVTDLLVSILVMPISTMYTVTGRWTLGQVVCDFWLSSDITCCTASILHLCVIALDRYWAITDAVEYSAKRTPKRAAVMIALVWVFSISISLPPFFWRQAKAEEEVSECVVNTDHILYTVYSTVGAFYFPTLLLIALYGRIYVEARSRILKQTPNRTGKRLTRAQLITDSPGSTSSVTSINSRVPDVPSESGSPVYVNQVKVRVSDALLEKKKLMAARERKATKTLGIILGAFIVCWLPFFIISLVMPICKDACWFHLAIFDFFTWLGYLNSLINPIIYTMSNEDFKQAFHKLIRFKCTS
Sequence of 5-HT2B receptor (HTR2B) (P41595 whole entry): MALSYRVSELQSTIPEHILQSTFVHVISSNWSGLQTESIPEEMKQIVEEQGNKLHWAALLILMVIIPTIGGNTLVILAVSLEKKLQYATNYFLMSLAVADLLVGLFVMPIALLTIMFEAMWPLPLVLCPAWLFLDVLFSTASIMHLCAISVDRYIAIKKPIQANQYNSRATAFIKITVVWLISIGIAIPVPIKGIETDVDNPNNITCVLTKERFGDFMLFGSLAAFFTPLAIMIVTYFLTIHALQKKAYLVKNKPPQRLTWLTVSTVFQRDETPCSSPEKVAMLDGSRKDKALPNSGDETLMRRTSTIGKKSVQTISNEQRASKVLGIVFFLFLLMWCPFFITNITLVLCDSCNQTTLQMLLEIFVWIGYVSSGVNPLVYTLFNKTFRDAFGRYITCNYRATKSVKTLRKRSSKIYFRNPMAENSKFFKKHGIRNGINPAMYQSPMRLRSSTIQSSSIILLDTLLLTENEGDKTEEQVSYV

Compound | EC50 (5-HT1B receptor (HTR1B)) | EC50 (5-HT2A receptor (HTR2A)) | IC50 (5-HT2A receptor (HTR2A)) | EC50 (5-HT2B receptor (HTR2B)) | EC50 (CB1 receptor (CNR1)) | IC50 (D1 receptor (DRD1)) | EC50 (M1 receptor (CHRM1)) | IC50 (M1 receptor (CHRM1)) | IC50 (NK1 receptor (TACR1)) | IC50 (V1A receptor (AVPR1A)) | IC50 [1] | EC50 (k-Receptor (OPRK1)) | Blood-free concentration of antagonist [2] | EC50 (5-HT2A receptor (HTR2A); [3]) | IC50 (5-HT2A receptor (HTR2A); Antagonism, read-out: Antagonist Activity (IC50)) | EC50 (CB1 receptor (CNR1); [3]) | EC50 (k-Receptor (OPRK1); [3])
CC1(C)C(C(=O)Nc2ccccn2)C1(C)C [Compound A] | 11.9 µM | > 100 µM | 41.4 µM | 27.1 µM | > 25 µM | > 100 µM | > 50 µM | > 50 µM | > 25 µM | > 50 µM | > 25 µM | > 100 µM | – | – | – | – | –
C[C@@H](C(=O)Nc1cnc(Oc2ccc(F)cc2F)cn1)N1CCC(F)(F)[C@@H](c2cc[n+]([O-])cc2)C1 [Compound B] | > 50 µM | – | – | > 100 µM | – | > 100 µM | > 50 µM | > 50 µM | > 25 µM | > 50 µM | > 25 µM | – | 19 ± 16 nM and 19 nM | > 100 µM | > 100 µM | > 25 µM | > 100 µM
